Common to all, as to type: nucleic-acid assay
Assay [1] deals with Nucleic Acid. Description: The binding constants against […] DNA.
Assay [2] deals with Nucleic Acid. As to the kind of experiment: The binding constants against poly(dA-dT) DNA.
Assay [3] relates to Nucleic Acid. As to the kind of experiment: The binding constants against T4 coliphage DNA.
Assay [4] concerns Nucleic Acid. Description: The binding constants against calf thymus DNA. The note with it: Bos taurus.

For the compound `CN(C)CCn1cc(NC(=O)c2nc(NC=O)cn2C)nc1C(N)=O`, the Ka in assay [1] turned out to be 105000 M⁻¹; in assay [2] it was 65000 M⁻¹; in assay [3], 19000 M⁻¹; in assay [4], 137000 M⁻¹.

Consider `Cn1cc(NC(=O)c2cc(NC(=O)CNC(=N)N)cn2C)cc1C(=O)NCCC(=N)N`, for which the Ka in assay [4] came to 1.87e+06 M⁻¹.

Values taken from ChEMBL document CHEMBL1127416, “GC sequence specific recognition by an N-formamido, C-terminus-modified and imidazole-containing analogue of netropsin” (J Med Chem, 1994).
